The structures appear in SMILES notation. pIC50: −log10 of the molar value.

T1 sequence (P53350 whole entry): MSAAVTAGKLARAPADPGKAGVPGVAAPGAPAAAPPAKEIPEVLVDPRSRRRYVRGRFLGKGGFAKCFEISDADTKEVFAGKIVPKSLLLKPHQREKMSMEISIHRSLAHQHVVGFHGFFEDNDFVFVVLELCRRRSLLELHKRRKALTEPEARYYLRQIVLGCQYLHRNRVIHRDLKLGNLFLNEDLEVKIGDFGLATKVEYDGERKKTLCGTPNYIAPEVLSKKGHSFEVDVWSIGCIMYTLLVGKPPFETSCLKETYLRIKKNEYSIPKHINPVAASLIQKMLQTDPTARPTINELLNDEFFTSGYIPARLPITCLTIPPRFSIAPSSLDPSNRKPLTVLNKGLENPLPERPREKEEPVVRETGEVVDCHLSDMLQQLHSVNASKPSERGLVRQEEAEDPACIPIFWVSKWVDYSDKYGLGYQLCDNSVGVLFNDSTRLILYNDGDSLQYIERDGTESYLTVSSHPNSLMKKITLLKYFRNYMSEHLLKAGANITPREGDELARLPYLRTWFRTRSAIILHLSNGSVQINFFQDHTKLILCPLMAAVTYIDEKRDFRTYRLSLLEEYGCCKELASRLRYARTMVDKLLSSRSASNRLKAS

The assay has as its target T1, PLK1 (Homo sapiens, UniProt P53350).
T1 construct: Full-length, active GST-Plk1 was purified from Sf9 insect cells; GST (N); made in house; host or cells: Sf9 insect cells
The experiment in a line: Biochemical Characterization Assay B (peptide substrate, LABCHIP EZ Reader II). Conditions: PLK1, peptide RRRAGALMDASFEEQ-CONH2, % conversion on LABCHIP EZ Reader II. The method, then:
Compounds were serially diluted to 6400, 2133, 711, 237, 79, 26, 8.78, 2.93, 0.98 and 0.33 μM in 100% DMSO. Diluted compound was further diluted 20 fold with Kinase Assay Buffer (KAB). Peptide RRRAGALMDASFEEQ-CONH2 (MW 2090) was diluted to 1.2 μM with KAB and ATP was added to 400 μM. PLK1 stock, prepared as described above, was diluted to 3 μg protein/mL with KAB right before it was added to MATRIX 384-Well Polypropylene Black Plates to start the reaction. 20 μL of KAB diluted compounds (or 5% DMSO in KAB for Total and Blank), 20 μL of KAB diluted peptide with ATP and 40 μL of KAB diluted PLK1 solution (KAB without PLK 1 for Blanks) were transferred to each well of the polypropylene plates. The reaction mixtures were incubated at room temperature for 40 minutes. Reactions were stopped by addition of 10 uL Reaction Stopping Buffer (RSB) to each well. Plates were then read on LABCHIP EZ Reader II from Caliper Life Science.
The IC50 values for each compound were generated using an Excel template. The % conversion readings of Total and Blank were used as 0% and 100% inhibition. The percent inhibition values of reactions in the presence of compounds were calculated, and plotted against compound concentrations. All data were fitted into a Dose Response One Site model (4 parameter logistic model) as the following: (A+4B−A)/(1+((x/C)^13)))), with A and B as the bottom and top of the curve (highest and lowest inhibition), respectively, and C as IC50 and D as Hill Coefficient of the compound.
A word on the pIC50: it is −log10 of the IC50, conventionally taken in molar units. As for `CC(C)(C)OC(=O)NC1CCN(Cc2ccc3ncn(-c4nc(-c5cccc(Cl)c5)c(C(N)=O)s4)c3c2)CC1` [Example 12], the pIC50 was 6.18.

Consider `CN1CCN(CCCCOc2ccc3ncn(-c4nc(-c5cccc(Cl)c5)c(C(N)=O)s4)c3c2)CC1` [Example 37, 4-(3-Chloro-phenyl)-2-{6-[4-(4-methyl-piperazin-1-yl)-butoxy]-benzoimidazol-1-yl}-thiazole-5-carboxylic acid amide], for which the pIC50 was 7.57.

As for `NC(=O)c1sc(-n2cnc3ccc(OCCCN4CCCCC4)cc32)nc1-c1cccc(Cl)c1` [Example 32, 4-(3-Chloro-phenyl)-2-[6-(3-piperidin-1-yl-propoxy)-benzoimidazol-1-yl]-thiazole-5-carboxylic acid amide], the pIC50 was 7.10.

As for `CN1CCC(C(=O)NC2CCN(Cc3ccc4ncn(-c5nc(-c6cccc(Cl)c6)c(C(N)=O)s5)c4c3)CC2)CC1` [Example 14, 1-Methyl-piperidine-4-carboxylic acid (1-{3-[5-carbamoyl-4-(3-chloro-phenyl)-thiazol-2-yl]3H-benzoimidazol-5-ylmethyl}-piperidin-4-yl)-amide], the pIC50 is 5.83.

The compound `NC(=O)c1sc(-n2cnc3ccc(OCC4CCNCC4)cc32)nc1-c1cccc(Cl)c1` [Example 23, 4-(3-Chloro-phenyl)-2-[6-(piperidin-4-ylmethoxy)-benzoimidazol-1-yl]-thiazole-5-carboxylic acid amide] gave a pIC50 of 7.77.

As for `CN(C)CCN(C)Cc1ccc2ncn(-c3nc(-c4cccc(Cl)c4)c(C(N)=O)s3)c2c1` [Example 6, 4-(3-Chloro-phenyl)-2-(6-{[(2-dimethylamino-ethyl)-methyl-amino]-methyl}-benzoimidazol-1-yl)-thiazole-5-carboxylic acid amide], the pIC50 is 6.30.

`CC(C)(C)OC(=O)NC(C)(C)C(=O)NC1CCN(Cc2ccc3ncn(-c4nc(-c5cccc(Cl)c5)c(C(N)=O)s4)c3c2)CC1` [Example 15, [1-(1-{3-[5-Carbamoyl-4-(3-chloro-phenyl)-thiazol-2-yl]-3H-benzoimidazol-5-ylmethyl}-piperidin-4-ylcarbamoyl)-1-methyl-ethyl]-carbamic acid tert-butyl ester] had a pIC50 of 5.28.

Take `COc1cc2ncn(-c3nc(-c4cccc(Cl)c4)c(C(N)=O)s3)c2cc1OCCN1CCN(C)CC1` [Example 44, 4-(3-Chloro-phenyl)-2-{5-methoxy-6-[2-(4-methyl-piperazin-1-yl)-ethoxy]-benzoimidazol-1-yl}-thiazole-5-carboxylic acid amide]: the pIC50 is 7.21.

The compound `CN1CCC(Oc2ccc3ncn(-c4nc(-c5cccc(Cl)c5)c(C(N)=O)s4)c3c2)CC1` [Example 22, 4-(3-Chloro-phenyl)-2-[6-(1-methyl-piperidin-4-yloxy)-benzoimidazol-1-yl]-thiazole-5-carboxylic acid amide] gave a pIC50 of 7.74.

In turn, `NC(=O)c1sc(-n2cnc3ccc(OCCCN4CCCC4)cc32)nc1-c1cccc(Cl)c1` [Example 34, 4-(3-Chloro-phenyl)-2-[6-(3-pyrrolidin-1-yl-propoxy)-benzoimidazol-1-yl]-thiazole-5-carboxylic acid amide] showed a pIC50 of 7.30.

`NC(=O)c1sc(-n2cnc3ccc(OCCCN(CCO)CCO)cc32)nc1-c1cccc(Cl)c1` [Example 35, 2-(6-{3-[Bis-(2-hydroxy-ethyl)-amino]-propoxy}-benzoimidazol-1-yl)-4-(3-chloro-phenyl)-thiazole-5-carboxylic acid amide] gave a pIC50 of 7.17.

`CN(C)CCOc1ccc2ncn(-c3nc(-c4cccc(Cl)c4)c(C(N)=O)s3)c2c1` [Example 29, 4-(3-Chloro-phenyl)-2-[6-(2-dimethylamino-ethoxy)-benzoimidazol-1-yl]-thiazole-5-carboxylic acid amide] showed a pIC50 of 6.45.

Compound `COc1cc2ncn(-c3nc(-c4cccc(Cl)c4)c(C(N)=O)s3)c2cc1OCCN1CCOCC1` [Example 45, 4-(3-Chloro-phenyl)-2-[5-methoxy-6-(2-morpholin-4-yl-ethoxy)-benzoimidazol-1-yl]-thiazole-5-carboxylic acid amide] showed a pIC50 of 7.59.

In turn, `NC(=O)c1sc(-n2cnc3ccc(CN4CCC(N)CC4)cc32)nc1-c1cccc(Cl)c1` [Example 13, 2-[6-(4-Amino-piperidin-1-ylmethyl)-benzoimidazol-1-yl]-4-(3-chloro-phenyl)-thiazole-5-carboxylic acid amide] had a pIC50 of 7.43.

`NC(=O)c1sc(-n2cnc3ccc(OCCCNCCO)cc32)nc1-c1cccc(Cl)c1` [Example 36, 4-(3-Chloro-phenyl)-2-{6-[3-(2-hydroxy-ethylamino)-propoxy]-benzoimidazol-1-yl}-thiazole-5-carboxylic acid amide] gave a pIC50 of 7.10.

`CN1CCN(CC(O)COc2ccc3ncn(-c4nc(-c5cccc(Cl)c5)c(C(N)=O)s4)c3c2)CC1` (stereo not drawn) [Example 39, 4-(3-Chloro-phenyl)-2-{6-[2-hydroxy-3-(4-methyl-piperazin-1-yl)-propoxy]-benzoimidazol-1-yl}-thiazole-5-carboxylic acid amide] had a pIC50 of 7.30.

In the case of `COc1cc2ncn(-c3nc(-c4cccc(Cl)c4)c(C(N)=O)s3)c2cc1OCCCN1CCOCC1` [Example 43, 4-(3-Chloro-phenyl)-2-[5-methoxy-6-(3-morpholin-4-yl-propoxy)-benzoimidazol-1-yl]-thiazole-5-carboxylic acid amide], the pIC50 was 8.10.

`NC(=O)c1sc(-n2cnc3ccc(OCCN4CCCCC4)cc32)nc1-c1cccc(Cl)c1` [Example 27, 4-(3-Chloro-phenyl)-2-[6-(2-piperidin-1-yl-ethoxy)-benzoimidazol-1-yl]-thiazole-5-carboxylic acid amide] had a pIC50 of 6.58.

In turn, `NC(=O)c1sc(-n2cnc3ccc(OCCCCN4CCOCC4)cc32)nc1-c1cccc(Cl)c1` [Example 38, 4-(3-Chloro-phenyl)-2-[6-(4-morpholin-4-yl-butoxy)-benzoimidazol-1-yl]-thiazole-5-carboxylic acid amide] had a pIC50 of 7.96.

The compound `CC(C)(N)C(=O)NC1CCN(Cc2ccc3ncn(-c4nc(-c5cccc(Cl)c5)c(C(N)=O)s4)c3c2)CC1` [Example 16, 2-{6-[4-(2-Amino-2-methyl-propionylamino)-piperidin-1-ylmethyl]-benzoimidazol-1-yl}-4-(3-chloro-phenyl)-thiazole-5-carboxylic acid amide] had a pIC50 of 5.89.

On to `COc1cc2ncn(-c3nc(-c4cccc(Cl)c4)c(C(N)=O)s3)c2cc1CN1CCN(C)CC1` [Example 46, 4-(3-Chloro-phenyl)-2-[5-methoxy-6-(4-methyl-piperazin-1-ylmethyl)-benzoimidazol-1-yl]-thiazole-5-carboxylic acid amide], for which the pIC50 was 7.89.

In turn, `CN1CCN(CCOc2ccc3ncn(-c4nc(-c5cccc(Cl)c5)c(C(N)=O)s4)c3c2)CC1` [Example 28, 4-(3-Chloro-phenyl)-2-{6-[2-(4-methyl-piperazin-1-yl)-ethoxy]-benzoimidazol-1-yl}-thiazole-5-carboxylic acid amide] showed a pIC50 of 6.98.

`NC(=O)c1sc(-n2cnc3ccc(CN(CCCN4CCOCC4)CCCN4CCOCC4)cc32)nc1-c1cccc(Cl)c1` [Example 49, 2-(6-{[Bis-(3-morpholin-4-yl-propyl)-amino]-methyl}-benzoimidazol-1-yl)-4-(3-chloro-phenyl)-thiazole-5-carboxylic acid amide] showed a pIC50 of 6.25.

Turning to `NC(=O)c1sc(-n2cnc3ccc(OCC(O)CN4CCOCC4)cc32)nc1-c1cccc(Cl)c1` (stereo not drawn) [Example 40, 4-(3-Chloro-phenyl)-2-[6-(2-hydroxy-3-morpholin-4-yl-propoxy)-benzoimidazol-1-yl]-thiazole-5-carboxylic acid amide], the pIC50 was 7.89.

`NC(=O)c1sc(-n2cnc3ccc(CCCCN4CCOCC4)cc32)nc1-c1cccc(Cl)c1` [Example 41, 4-(3-Chloro-phenyl)-2-[6-(4-morpholin-4-yl-butyl)-benzoimidazol-1-yl]-thiazole-5-carboxylic acid amide] showed a pIC50 of 7.80.

As for `CN1CCC(COc2ccc3ncn(-c4nc(-c5cccc(Cl)c5)c(C(N)=O)s4)c3c2)CC1` [Example 24, 4-(3-Chloro-phenyl)-2-[6-(1-methyl-piperidin-4-ylmethoxy)-benzoimidazol-1-yl]-thiazole-5-carboxylic acid amide], the pIC50 was 7.85.

With `CN(CCCN1CCOCC1)Cc1ccc2ncn(-c3nc(-c4cccc(Cl)c4)c(C(N)=O)s3)c2c1` [Example 50, 4-(3-Chloro-phenyl)-2-(6-{[methyl-(3-morpholin-4-yl-propyl)-amino]-methyl}-benzoimidazol-1-yl)-thiazole-5-carboxylic acid amide], the pIC50 was 7.07.

Source of the values: patent US8044213B2, “Thiazolyl-benzimidazoles” (Hoffmann-La Roche Inc., priority 2008, dated 2011).
